{"source": "paper PMC4979471", "about": "(Cell Death Discovery, 2015)", "assay_in_all_cases": "Kinase selectivity, P33-radiolabeled assay", "format_in_all_cases": "biochemical", "conditions_in_all_cases": "10 μM ATP", "key": {"SGK3/SGKL": {"target": "T1, SGK3/SGKL (Homo sapiens, UniProt Q96BR1)", "T1 construct": "purchased Reaction Biology Corp", "T1 sequence (Q96BR1 1-496)": "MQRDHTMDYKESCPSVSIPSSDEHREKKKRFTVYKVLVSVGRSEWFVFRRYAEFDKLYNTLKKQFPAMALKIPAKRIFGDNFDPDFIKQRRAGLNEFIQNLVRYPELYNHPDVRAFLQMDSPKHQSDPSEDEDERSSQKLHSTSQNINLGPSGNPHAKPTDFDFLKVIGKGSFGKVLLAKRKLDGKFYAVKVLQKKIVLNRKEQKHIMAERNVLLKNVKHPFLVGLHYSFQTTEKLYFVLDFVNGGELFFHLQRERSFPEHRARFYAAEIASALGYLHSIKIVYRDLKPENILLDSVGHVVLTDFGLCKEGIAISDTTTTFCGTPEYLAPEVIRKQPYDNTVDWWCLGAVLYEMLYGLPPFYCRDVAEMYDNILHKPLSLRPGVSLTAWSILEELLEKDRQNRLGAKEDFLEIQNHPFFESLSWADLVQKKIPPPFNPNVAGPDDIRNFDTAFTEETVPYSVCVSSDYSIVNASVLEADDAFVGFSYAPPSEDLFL", "summary_of_the_method": "(§1)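 Values show % enzyme activity normalised to DMSO vehicle. They come from one 10 μM compound concentration run twice, at an ATP level of 10 μM.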"}, "EPHB1": {"target": "T2, EPHB1 (Homo sapiens, UniProt P54762)", "T2 construct": "purchased Reaction Biology Corp", "T2 sequence (P54762 18-984)": "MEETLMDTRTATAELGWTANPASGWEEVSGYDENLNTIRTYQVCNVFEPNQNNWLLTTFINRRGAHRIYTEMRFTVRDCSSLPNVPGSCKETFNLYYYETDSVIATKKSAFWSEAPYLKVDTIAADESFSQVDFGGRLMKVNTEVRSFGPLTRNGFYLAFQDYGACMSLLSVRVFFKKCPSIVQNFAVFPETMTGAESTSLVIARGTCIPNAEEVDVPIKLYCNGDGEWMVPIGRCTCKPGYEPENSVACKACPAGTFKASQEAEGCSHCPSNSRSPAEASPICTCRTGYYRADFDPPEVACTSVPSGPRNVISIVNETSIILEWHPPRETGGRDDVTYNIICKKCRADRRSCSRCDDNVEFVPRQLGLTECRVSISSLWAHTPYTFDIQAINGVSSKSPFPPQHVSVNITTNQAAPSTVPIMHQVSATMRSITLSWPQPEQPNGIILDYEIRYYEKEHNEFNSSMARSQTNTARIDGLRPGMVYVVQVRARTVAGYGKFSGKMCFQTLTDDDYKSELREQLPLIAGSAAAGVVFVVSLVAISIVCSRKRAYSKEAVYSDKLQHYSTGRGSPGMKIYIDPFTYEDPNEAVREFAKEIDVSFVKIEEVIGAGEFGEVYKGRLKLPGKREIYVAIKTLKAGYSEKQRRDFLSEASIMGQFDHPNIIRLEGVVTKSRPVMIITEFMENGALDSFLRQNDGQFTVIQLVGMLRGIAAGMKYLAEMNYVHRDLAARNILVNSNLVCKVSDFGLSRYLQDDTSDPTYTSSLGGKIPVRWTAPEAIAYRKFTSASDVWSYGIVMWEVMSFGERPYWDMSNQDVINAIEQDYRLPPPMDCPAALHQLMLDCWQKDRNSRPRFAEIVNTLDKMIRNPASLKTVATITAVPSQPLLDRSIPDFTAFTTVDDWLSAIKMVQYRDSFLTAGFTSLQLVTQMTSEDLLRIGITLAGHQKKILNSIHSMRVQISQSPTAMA", "summary_of_the_method": "as §1"}, "NEK4": {"target": "T3, NEK4 (Homo sapiens, UniProt P51957)", "T3 construct": "purchased Reaction Biology Corp", "T3 sequence (P51957 whole entry)": "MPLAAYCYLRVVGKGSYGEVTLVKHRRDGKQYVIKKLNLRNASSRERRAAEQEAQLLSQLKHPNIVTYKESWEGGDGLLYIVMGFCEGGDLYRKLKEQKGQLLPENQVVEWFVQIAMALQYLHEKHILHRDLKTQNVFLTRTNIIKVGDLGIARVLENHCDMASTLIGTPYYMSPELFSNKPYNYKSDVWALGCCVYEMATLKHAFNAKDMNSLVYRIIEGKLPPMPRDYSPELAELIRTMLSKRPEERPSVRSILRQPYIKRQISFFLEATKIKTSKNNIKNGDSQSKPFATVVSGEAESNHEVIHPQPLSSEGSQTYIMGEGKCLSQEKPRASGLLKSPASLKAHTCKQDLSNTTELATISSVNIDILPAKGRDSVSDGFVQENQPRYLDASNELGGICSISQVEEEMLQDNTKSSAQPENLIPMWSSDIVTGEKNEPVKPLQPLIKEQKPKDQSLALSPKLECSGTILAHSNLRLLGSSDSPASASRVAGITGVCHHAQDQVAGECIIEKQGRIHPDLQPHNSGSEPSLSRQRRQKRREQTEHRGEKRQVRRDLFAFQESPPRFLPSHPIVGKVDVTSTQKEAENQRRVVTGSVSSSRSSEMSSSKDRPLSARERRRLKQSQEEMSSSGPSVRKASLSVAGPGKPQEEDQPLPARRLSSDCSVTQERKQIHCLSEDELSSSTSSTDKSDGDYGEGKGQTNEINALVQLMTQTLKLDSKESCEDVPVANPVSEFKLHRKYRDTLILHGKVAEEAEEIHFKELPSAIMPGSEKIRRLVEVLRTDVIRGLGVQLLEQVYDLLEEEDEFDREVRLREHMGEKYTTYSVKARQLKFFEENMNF", "summary_of_the_method": "as §1"}, "PIM2": {"target": "T4, PIM2 (Homo sapiens, UniProt Q9P1W9)", "T4 construct": "purchased Reaction Biology Corp", "T4 sequence (Q9P1W9 whole entry)": "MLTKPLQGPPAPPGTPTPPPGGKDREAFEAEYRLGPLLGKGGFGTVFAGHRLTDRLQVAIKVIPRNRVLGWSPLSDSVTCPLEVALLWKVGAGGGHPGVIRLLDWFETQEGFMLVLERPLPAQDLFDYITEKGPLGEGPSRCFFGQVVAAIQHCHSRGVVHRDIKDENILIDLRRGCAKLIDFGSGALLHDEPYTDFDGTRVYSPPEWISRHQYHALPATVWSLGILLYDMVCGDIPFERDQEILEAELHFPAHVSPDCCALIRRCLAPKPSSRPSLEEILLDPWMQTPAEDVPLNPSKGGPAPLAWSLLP", "summary_of_the_method": "as §1"}, "NEK3": {"target": "T5, NEK3 (Homo sapiens, UniProt P51956)", "T5 construct": "purchased Reaction Biology Corp", "T5 sequence (P51956 1-506)": "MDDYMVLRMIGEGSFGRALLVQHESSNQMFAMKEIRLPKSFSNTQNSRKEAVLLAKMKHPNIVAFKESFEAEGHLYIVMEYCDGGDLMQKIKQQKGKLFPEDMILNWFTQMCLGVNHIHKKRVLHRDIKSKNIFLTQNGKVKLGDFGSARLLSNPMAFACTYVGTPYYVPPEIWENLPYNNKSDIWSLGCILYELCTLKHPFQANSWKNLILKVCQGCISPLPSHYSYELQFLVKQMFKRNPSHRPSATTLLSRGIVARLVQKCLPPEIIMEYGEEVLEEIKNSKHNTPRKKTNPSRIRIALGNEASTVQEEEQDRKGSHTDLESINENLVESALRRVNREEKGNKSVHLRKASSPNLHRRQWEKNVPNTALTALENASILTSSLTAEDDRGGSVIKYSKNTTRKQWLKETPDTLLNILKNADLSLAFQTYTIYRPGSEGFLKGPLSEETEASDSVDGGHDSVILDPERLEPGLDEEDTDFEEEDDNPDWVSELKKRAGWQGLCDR", "summary_of_the_method": "as §1"}, "[1]": {"conditions": "read-out: % Enzyme Activity (relative to DMSO controls) AVG"}, "[2]": {"conditions": "read-out: % Enzyme Activity (relative to DMSO controls) Data 1"}, "[3]": {"conditions": "read-out: % Enzyme Activity (relative to DMSO controls) Data 2"}}, "note": "Like-named read-outs stand apart in the source and are kept apart here."}
{"smiles": "CC(C)(C)C(=O)N1N=CC[C@H]1c1ccccc1", "note": "[GSK′963]", "values": [{"measurement": "remaining activity at 10 µM", "setting": "SGK3/SGKL; [1]", "result": 107, "unit": "%"}, {"measurement": "remaining activity at 10 µM", "setting": "SGK3/SGKL; [2]", "result": 104, "unit": "%"}, {"measurement": "remaining activity at 10 µM", "setting": "SGK3/SGKL; [3]", "result": 110, "unit": "%"}, {"measurement": "remaining activity at 10 µM", "setting": "EPHB1; [1]", "result": 99.4, "unit": "%"}, {"measurement": "remaining activity at 10 µM", "setting": "EPHB1; [2]", "result": 98.8, "unit": "%"}, {"measurement": "remaining activity at 10 µM", "setting": "EPHB1; [3]", "result": 100, "unit": "%"}, {"measurement": "remaining activity at 10 µM", "setting": "NEK4; [1]", "result": 102, "unit": "%"}, {"measurement": "remaining activity at 10 µM", "setting": "NEK4; [2]", "result": 102, "unit": "%"}, {"measurement": "remaining activity at 10 µM", "setting": "NEK4; [3]", "result": 102, "unit": "%"}, {"measurement": "remaining activity at 10 µM", "setting": "PIM2; [1]", "result": 115, "unit": "%"}, {"measurement": "remaining activity at 10 µM", "setting": "PIM2; [2]", "result": 112, "unit": "%"}, {"measurement": "remaining activity at 10 µM", "setting": "PIM2; [3]", "result": 118, "unit": "%"}, {"measurement": "remaining activity at 10 µM", "setting": "NEK3; [1]", "result": 93.5, "unit": "%"}, {"measurement": "remaining activity at 10 µM", "setting": "NEK3; [2]", "result": 93.2, "unit": "%"}, {"measurement": "remaining activity at 10 µM", "setting": "NEK3; [3]", "result": 93.8, "unit": "%"}]}
